Data on 13 compounds can be found in patent US12545685B2 (Daiichi Sankyo Company, Limited, priority 2011, dated 2026).

Broadly, the IC50 is the concentration that inhibits the measured activity by half. The low end stands for greater potency in that assay, the high end for weaker potency in that assay.

The target of experiment [1] is T1, Mdm2/p53 binding (GST-Mdm2 / His-p53) (Homo sapiens, UniProt Q00987, L33E).
T1 construct: Mdm2 partial protein having Mdm2 amino acids at positions 25 to 108
As to the kind of experiment: Mdm2/p53 binding assay (HTRF, His-p53 and GST-Mdm2). To be noted: His-p53 (aa 1-132) and GST-Mdm2 (aa 25-108, L33E) 6.25 nM each; 25°C, 1 hour; values given as ranges. Summed up: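 Binding was detected by HTRF (ex 320 nm, em 620/665 nm) after 1 h at 25 °C, using Eu-cryptate anti-GST and XL665 anti-His antibodies. The protein pair was GST-Mdm2 (residues 25–108, L33E) with His-p53 (residues 1–132), each 6.25 nM in the protein dilution. T/C used no-compound control and no-p53 background, and IC50 came from sigmoid fitting.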
In general terms: In TR-FRET formats the signal depends on donor and acceptor labels being close together.

For experiment [2], the system named is human lung cancer-derived cell line NCI-H460 having wild-type p53. The experiment can be described thus: Cell growth inhibition assay (MTT). It counts as cell-based. To be noted: 72 h, NCI-H460 cells, 3 days culture, values given as ranges, read-out: 50% growth inhibition concentration (GI50 value). How it is done:
A cell growth inhibition assay was conducted using a human lung cancer-derived cell line NCI-H460 having wild-type p53.
NCI-H460 cells were suspended in a medium (RPMI1640 medium containing 10% fetal bovine serum) and the suspension was added in an amount of 500 cells/150 μl/well to a 96-well plate. A test compound was dissolved in DMSO and this solution was diluted with medium to prepare a sample solution (DMSO concentration: 1% or lower). On the next day, medium nonsupplemented with the test compound, or the sample solution, was added in an amount of 50 μl/well. Cells were then cultured at 37° ° C. for 3 days in a 5% CO2 atmosphere.
An MTT assay was conducted immediately after the nonsupplemented medium or the sample solution was added. Another MTT assay was conducted after culturing the cells for 3 days. The MIT assays were conducted as shown below.
A 5 mg/ml MTT (3-(4,5-dimethylthiazol-2-yl)-2,5-diphenyltetrazolium bromide, Sigma-Aldrich Co., M-2128) solution was prepared using a phosphate buffer solution (Dulbecco's Phosphate-buffered Saline). This MIT solution was added in an amount of 20 μl/well. Then the plate was cultured at 37° ° C. for 4 hours in a 5% CO2 atmosphere. The plate was centrifuged at 1200 rpm for 5 minutes and then the culture supernatant was removed by aspiration using a dispenser. DMSO was added in an amount of 150 μl/well to dissolve generated formazan. The plate was stirred using a plate mixer for uniform color development from each well. The absorbance of each well was measured at OD 540 nm and at a reference OD (660 nm) using a plate reader (SpectraMax PLUS384, Molecular Devices, CA, USA).
The OD value measured on the day of adding the sample solution was defined as S. The OD value measured three days after addition of the sample solution was defined as T. The OD value measured three days after addition of the DMSO dilution was defined as C. T/C (%) was determined at each concentration according to the formula shown below in order to prepare a dose response curve, from which 50% growth inhibition concentration (GI50 value) was calculated.

T1 sequence (Q00987 25-108 L33E): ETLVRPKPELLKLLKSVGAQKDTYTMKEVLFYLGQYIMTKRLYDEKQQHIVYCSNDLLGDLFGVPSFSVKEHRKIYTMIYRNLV

`CC1(C)CCC2(CC1)N[C@@H](C(=O)N[C@H]1CC[C@H](c3nnco3)CC1)[C@H](c1ccnc(Cl)c1F)[C@]21C(=O)Nc2nc(Cl)ccc21` (relative stereo) [Example 26, (3′R, 4′S,5′R)-6″-chloro-4′-(2-chloro-3-fluoropyridin-4-yl)-4,4-dimethyl-N-[trans-4-(1,3,4-oxadiazol-2-yl)cyclohexyl]-2″-oxo-1″,2″-dihydrodispiro[cyclohexane-1,2′-pyrrolidine-3′,3″-pyrrolo[2,3-b]pyridine]-5′-carboxamide]: the IC50 in experiment [1] was in the range of 50 to 100 nM. Moreover, the GI50 in experiment [2] is 500 to 1000 nM.
The like results for `CC1(C)CCC2(CC1)N[C@@H](C(=O)N[C@H]1CC[C@H](c3nnc[nH]3)CC1)[C@H](c1ccnc(Cl)c1F)[C@]21C(=O)Nc2cc(Cl)ccc21` (relative stereo) [Example 32, (3′R, 4′S,5′R)-6″-chloro-4′-(2-chloro-3-fluoropyridin-4-yl)-4,4-dimethyl-2″-oxo-N-[trans-4-(4H-1,2,4-triazol-3-yl)cyclohexyl]-1″,2″-dihydrodispiro[cyclohexane-1,2′-pyrrolidine-3′,3″-indole]-5′-carboxamide] were, in that order, 50 to 100 nM and 100 to 500 nM.
Consider `CC(O)[C@@H]1CC[C@@H](NC(=O)[C@@H]2NC3(CCC(C)(C)CC3)[C@@]3(C(=O)Nc4cc(Cl)ccc43)C2c2ccnc(Cl)c2)CO1` (single isomer, unassigned) [Example 77], for which the IC50 in experiment [1] fell in the range of 1 to 50 nM. The GI50 in experiment [2] lay in the range of 100 to 500 nM.
The compound `CC(O)[C@@H]1CC[C@@H](NC(=O)[C@@H]2NC3(CCC(C)(C)CC3)[C@@]3(C(=O)Nc4cc(Cl)ccc43)[C@H]2c2ccnc(Cl)c2F)CO1` (single isomer, unassigned) [Example 93] showed an IC50 in experiment [1] of 50 to 100 nM. In experiment [2], the GI50 fell in the range of 100 to 500 nM.
Compound `CC1(C)CCC2(CC1)N[C@@H](C(=O)N[C@@H]1CC[C@@H](CO)OC1)[C@H](c1cccc(Cl)c1F)[C@]21C(=O)Nc2nc(Cl)ccc21` [Example 3, (3′R, 4′S,5′R)-6″-chloro-4′-(3-chloro-2-fluorophenyl)-N-[(3R,6S)-6-(hydroxymethyl)tetrahydro-2H-pyran-3-yl]-4,4-dimethyl-2″-oxo-1″,2″-dihydrodispiro[cyclohexane-1,2′-pyrrolidine-3′,3″-pyrrolo[2,3-b]pyridine]-5′-carboxamide] had an IC50 in experiment [1] of 1 to 50 nM. Also, the GI50 in experiment [2] lay within 500 to 1000 nM.
The like results for `CC1(C)CCC2(CC1)N[C@@H](C(=O)N[C@@H]1CC[C@@H](CO)OC1)[C@H](c1cccc(Cl)c1F)[C@]21C(=O)Nc2cc(Cl)ccc21` [Example 8, (3′R, 4′S,5′R)-6″-chloro-4′-(3-chloro-2-fluorophenyl)-N-[(3R,6S)-6-(hydroxymethyl)tetrahydro-2H-pyran-3-yl]-4,4-dimethyl-2″-oxo-1″,2″-dihydrodispiro[cyclohexane-1,2′-pyrrolidine-3′,3″-indole]-5′-carboxamide] were, in that order, 1 to 50 nM and 100 to 500 nM.
Regarding `CC1(C)CCC2(CC1)N[C@@H](C(=O)N[C@@H]1CC[C@@H](C(C)(C)O)OC1)[C@H](c1cccc(Cl)c1F)[C@]21C(=O)Nc2nc(Cl)ccc21` [Example 11, (3′R, 4′S,5′R)-6″-chloro-4′-(3-chloro-2-fluorophenyl)-N-[(3R,6S)-6-(1-hydroxy-1-methylethyl)tetrahydro-2H-pyran-3-yl]-4,4-dimethyl-2″-oxo-1″,2″-dihydrodispiro[cyclohexane-1,2′-pyrrolidine-3′,3″-pyrrolo[2,3-b]pyridine]-5′-carboxamide], the IC50 in experiment [1] was in the range of 1 to 50 nM. For the same compound, the GI50 in experiment [2] lay in the range of 500 to 1000 nM.
In the case of `CC1(C)CCC2(CC1)N[C@@H](C(=O)N[C@@H]1CC[C@@H](CO)OC1)[C@H](c1ccnc(Cl)c1)[C@]21C(=O)Nc2cc(Cl)ccc21` [Example 13, (3′R, 4′R, 5′R)-6″-chloro-4′-(2-chloropyridin-4-yl)-N-[(3R,6S)-6-(hydroxymethyl)tetrahydro-2H-pyran-3-yl]-4,4-dimethyl-2″-oxo-1″,2″-dihydrodispiro[cyclohexane-1,2′-pyrrolidine-3′,3″-indole]-5′-carboxamide], the IC50 in experiment [1] was 1 to 50 nM. Also, the GI50 in experiment [2] lay within 100 to 500 nM.
Consider `CC1(C)CCC2(CC1)N[C@@H](C(=O)N[C@H]1CC[C@H](O)CC1)[C@H](c1cc(F)cc(Cl)c1)[C@]21C(=O)Nc2cc(Cl)ccc21` [Example 14, (3′R, 4′R, S′R)-6″-chloro-4′-(3-chloro-5-fluorophenyl)-N-(trans-4-hydroxycyclohexyl)-4,4-dimethyl-2″-oxo-1″,2″-dihydrodispiro[cyclohexane-1,2′-pyrrolidine-3′,3″-indole]-5′-carboxamide], for which the IC50 in experiment [1] is 100 to 500 nM. In addition, the GI50 in experiment [2] lay within 500 to 1000 nM.
For `CC1(C)CCC2(CC1)N[C@@H](C(=O)N[C@@H]1CC[C@@H](C(C)(C)O)OC1)[C@H](c1ccnc(Cl)c1F)[C@]21C(=O)Nc2cc(Cl)ccc21` [Example 17, (3′R, 4′S,5′R)-6″-chloro-4′-(2-chloro-3-fluoropyridin-4-yl)-N-[(3R,6S)-6-(1-hydroxy-1-methylethyl)tetrahydro-2H-pyran-3-yl]-4,4-dimethyl-2″-oxo-1″,2″-dihydrodispiro[cyclohexane-1,2′-pyrrolidine-3′,3″-indole]-5′-carboxamide], in that order: 50 to 100 nM and 100 to 500 nM.
For `CC1(C)CCC2(CC1)N[C@@H](C(=O)N[C@@H]1CC[C@@H](CO)OC1)[C@H](c1ccnc(Cl)c1F)[C@]21C(=O)Nc2cc(Cl)ccc21` [Example 20, (3′R, 4′S,5′R)-6″-chloro-4′-(2-chloro-3-fluoropyridin-4-yl)-N-[(3R,6S)-6-(hydroxymethyl)tetrahydro-2H-pyran-3-yl]-4,4-dimethyl-2″-oxo-1″,2″-dihydrodispiro[cyclohexane-1,2′-pyrrolidine-3′,3″-indole]-S′-carboxamide], in that order: 1 to 50 nM and less than 100 nM.
The like results for `CC1(C)CCC2(CC1)N[C@@H](C(=O)N[C@@H]1CC[C@@H](CO)OC1)[C@H](c1ccnc(Cl)c1F)[C@]21C(=O)Nc2cc(Cl)c(F)cc21` [Example 23, (3′R, 4′S,5′R)-6″-chloro-4′-(2-chloro-3-fluoropyridin-4-yl)-5″-fluoro-N-[(3R,6S)-6-(hydroxymethyl)tetrahydro-2H-pyran-3-yl]-4,4-dimethyl-2″-oxo-1″,2″-dihydrodispiro[cyclohexane-1,2′-pyrrolidine-3′,3″-indole]-5′-carboxamide] were, in that order, 1 to 50 nM and 100 to 500 nM.
For the compound `CC1(C)CCC2(CC1)N[C@@H](C(=O)N[C@@H]1CC[C@@H](CO)OC1)[C@H](c1ccnc(Cl)c1F)[C@]21C(=O)Nc2nc(Cl)ccc21` [Example 25, (3′R, 4′S,5′R)-6″-chloro-4′-(2-chloro-3-fluoropyridin-4-yl)-N-[(3R,6S)-6-(hydroxymethyl)tetrahydro-2H-pyran-3-yl]-4,4-dimethyl-2″-oxo-1″,2″-dihydrodispiro[cyclohexane-1,2′-pyrrolidine-3′,3″-pyrrolo[2,3-b]pyridine]-5′-carboxamide], the IC50 in experiment [1] is 1 to 50 nM. Moreover, the GI50 in experiment [2] fell in the range of 500 to 1000 nM.
